Data on one molecule can be found in paper PMC6099728, “Investigation of Hydro-Lipophilic Properties of N-Alkoxyphenylhydroxynaphthalenecarboxamides” (Molecules : A Journal of Synthetic Chemistry and Natural …, 2018).

The nature of the series: Lipophilicity determination by RP-HPLC (capacity factor k / logk). The series is classed as physicochemical. Particulars: series A. The text has this: A HPLC separation module Waters Alliance 2695 XE equipped with a Waters Dual Absorbance Detector 2486 (Waters Corp., Milford, MA, USA) was used. A chromatographic column Symmetry® C18 5 µm, 4.6 × 250 mm, Part No. W21751W016 (Waters Corp.) was used. The HPLC separation process was monitored by Empower® 3 Chromatography Manager Software (Waters Corp.). Isocratic elution by a mixture of MeOH p.a. (72%) and H2O-HPLC Mili-Q grade (28%) as a mobile phase was used. The total flow of the column was 1.0 mL/min, the injection was 20 μL, the column temperature was 40 °C, and the sample temperature was 10 °C. A detection wavelength of 210 nm was chosen. The KI methanolic solution was used for the determination of dead time (tD). Retention times (tR) were measured in minutes. Capacity factors k were calculated using the Empower® 3 Chromatography Manager Software according to the formula k = (tR − tD)/tD, where tR is the retention time of the solute, while tD is the dead time obtained using an unretained analyte. Each experiment was repeated three times. Logk, which was calculated from the capacity factor k, is used as the lipophilicity index converted to the logP scale.

The structures appear in SMILES notation.

As for `CCC(C)Oc1ccc(NC(=O)c2cc3ccccc3cc2O)cc1` (centres unmarked) [19a], under “isocratic MeOH 72%/H2O 28%, C18 column, 40 °C”, the logk was found to be 0.7977. For the same molecule, for the setting “π = logkS − logkU, unsubstituted 1a as reference”, the “πA (distributive parameter π calculated from logk)” value is recorded as 0.09.
